ChEMBL document CHEMBL3588804, “Structure-activity relationship studies on acremomannolipin A, the potent calcium signal modulator with a novel glycolipid structure 3: role of the length of alditol side chain” (Bioorg Med Chem, 2015)
The source made the active and inactive calls. The rule behind the calls is not given here.

System: Schizosaccharomyces pombe
Experiment: Suppression of Cl- sensitive growth defect in calcineurin gene deleted Schizosaccharomyces pombe (h+ leu1 ura4-D18 ppb1::ura4+) at 100 uM after 3 days by filter paper disk assay in presence of 0.11 M MgCl2 in YPD medium

Compound | Activity
CCCCCCCC(=O)O[C@@H]1[C@H](OCCO)O[C@H](COC(=O)CCCCC)[C@@H](OC(=O)CCCCC)[C@@H]1OC(=O)CCCCC | inactive
CCCCCCCC(=O)O[C@@H]1[C@H](OC[C@@H](O)[C@@H](O)[C@H](O)[C@H](O)[C@@H](O)CO)O[C@H](COC(=O)CCCCC)[C@@H](OC(=O)CCCCC)[C@@H]1OC(=O)CCCCC | Active
CCCCCCCC(=O)O[C@@H]1[C@H](OC[C@@H](O)[C@@H](O)[C@H](O)[C@H](O)CO)O[C@H](COC(=O)CCCCC)[C@@H](OC(=O)CCCCC)[C@@H]1OC(=O)CCCCC | Active
CCCCCCCC(=O)O[C@@H]1[C@H](OC[C@@H](O)[C@@H](O)[C@H](O)CO)O[C@H](COC(=O)CCCCC)[C@@H](OC(=O)CCCCC)[C@@H]1OC(=O)CCCCC | Active
CCCCCCCC(=O)O[C@@H]1[C@H](OC[C@@H](O)CO)O[C@H](COC(=O)CCCCC)[C@@H](OC(=O)CCCCC)[C@@H]1OC(=O)CCCCC | inactive
CCCCCCCC(=O)O[C@@H]1[C@H](OC[C@@H](O)[C@@H](O)CO)O[C@H](COC(=O)CCCCC)[C@@H](OC(=O)CCCCC)[C@@H]1OC(=O)CCCCC | Active
